The values that follow come from patent US10526316B2, “Quinoxaline and pyridopyrazine derivatives as PI3Kβ inhibitors” (Janssen Pharmaceutica NV, priority 2015, dated 2020).

Read-outs that look alike come from different tables or passages of the source.

Assay [1] relates to Akt phosphorylated at Ser473 in PC-3 cells. The assay is described as follows: Cellular assay: phosphorylation of Akt at Ser473 in PC-3 cells (MSD ELISA). Format: cell-based. The following applies: PC-3 cells, 60 min compound incubation, MSD ELISA, read-out: IC50 pAkt_S473. The gist of the method: (§1)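 Phospho-Akt in whole-cell lysates is quantified by electrochemiluminescent immunoassay using phospho-site capture and total-Akt detection antibodies.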
For orientation: In an ELISA, binding on a coated surface is turned into a signal by an enzyme label.

A further assay addresses T1, PI3Kδ (Homo sapiens, UniProt O00329).
T1 construct: purchased DiscoveRx Corporation, San Diego (contract service, KINOMEscan)
T1 sequence (O00329 1-1044): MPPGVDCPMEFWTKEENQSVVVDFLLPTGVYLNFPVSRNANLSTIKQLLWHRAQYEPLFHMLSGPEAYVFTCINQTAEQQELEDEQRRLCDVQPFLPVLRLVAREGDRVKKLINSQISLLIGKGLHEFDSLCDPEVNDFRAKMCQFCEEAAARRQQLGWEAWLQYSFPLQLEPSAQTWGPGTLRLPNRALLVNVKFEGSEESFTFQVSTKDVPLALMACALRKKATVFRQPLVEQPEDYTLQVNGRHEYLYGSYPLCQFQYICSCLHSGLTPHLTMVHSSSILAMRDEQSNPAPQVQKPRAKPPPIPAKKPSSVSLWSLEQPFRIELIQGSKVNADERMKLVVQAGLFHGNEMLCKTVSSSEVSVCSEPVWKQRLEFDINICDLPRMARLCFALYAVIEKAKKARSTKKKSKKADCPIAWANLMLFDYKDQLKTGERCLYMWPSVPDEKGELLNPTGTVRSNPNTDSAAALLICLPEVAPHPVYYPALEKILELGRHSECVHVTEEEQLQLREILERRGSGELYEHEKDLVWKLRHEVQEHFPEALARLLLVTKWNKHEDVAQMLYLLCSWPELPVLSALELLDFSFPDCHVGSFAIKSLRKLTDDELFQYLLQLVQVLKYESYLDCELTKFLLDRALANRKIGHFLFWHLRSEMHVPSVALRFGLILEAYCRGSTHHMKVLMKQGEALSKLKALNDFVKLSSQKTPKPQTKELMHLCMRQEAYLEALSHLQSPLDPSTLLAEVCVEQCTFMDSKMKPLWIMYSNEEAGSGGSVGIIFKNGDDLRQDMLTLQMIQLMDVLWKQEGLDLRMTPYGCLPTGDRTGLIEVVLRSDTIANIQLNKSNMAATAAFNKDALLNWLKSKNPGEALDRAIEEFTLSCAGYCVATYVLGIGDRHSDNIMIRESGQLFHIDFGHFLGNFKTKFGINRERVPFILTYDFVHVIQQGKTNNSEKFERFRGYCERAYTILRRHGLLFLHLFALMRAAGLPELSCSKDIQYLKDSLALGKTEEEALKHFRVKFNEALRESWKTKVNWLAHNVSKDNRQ
The assay is described as follows: Enzyme binding assay (KINOMEscan, DiscoveRx). The conditions noted are these: PIK3Cδ_h. The gist of the method: (§2)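 Compounds were profiled by KINOMEscan to obtain kinase binding affinities.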

Assay [2] relates to Akt phosphorylated at Thr308 in PC-3 cells. Nature of the assay: Cellular assay: phosphorylation of Akt at Thr308 in PC-3 cells (MSD ELISA). Format: cell-based. The following applies: PC-3 cells, 60 min compound incubation, MSD ELISA, read-out: IC50 pAkt_Thr308. In outline: as §1
Assay [3] has as its target T2, kinase enzymes (Homo sapiens, UniProt P42336).
T2 construct: purchased DiscoveRx Corporation, San Diego (contract service, KINOMEscan)
Nature of the assay: Enzyme binding assay (KINOMEscan, DiscoveRx), further kinases of Table A. The following applies: PIK3Cα_h. The gist of the method:
as §2

Assay [4] addresses T3, kinase enzymes (Homo sapiens, UniProt P42345).
T3 construct: purchased DiscoveRx Corporation, San Diego (contract service, KINOMEscan)
The description is as above. The conditions noted are these: MTOR_h. The gist of the method: as §2

For assay [5], the target named is T4, kinase enzymes (Homo sapiens, UniProt P48736).
T4 construct: purchased DiscoveRx Corporation, San Diego (contract service, KINOMEscan)
T4 sequence (P48736 whole entry): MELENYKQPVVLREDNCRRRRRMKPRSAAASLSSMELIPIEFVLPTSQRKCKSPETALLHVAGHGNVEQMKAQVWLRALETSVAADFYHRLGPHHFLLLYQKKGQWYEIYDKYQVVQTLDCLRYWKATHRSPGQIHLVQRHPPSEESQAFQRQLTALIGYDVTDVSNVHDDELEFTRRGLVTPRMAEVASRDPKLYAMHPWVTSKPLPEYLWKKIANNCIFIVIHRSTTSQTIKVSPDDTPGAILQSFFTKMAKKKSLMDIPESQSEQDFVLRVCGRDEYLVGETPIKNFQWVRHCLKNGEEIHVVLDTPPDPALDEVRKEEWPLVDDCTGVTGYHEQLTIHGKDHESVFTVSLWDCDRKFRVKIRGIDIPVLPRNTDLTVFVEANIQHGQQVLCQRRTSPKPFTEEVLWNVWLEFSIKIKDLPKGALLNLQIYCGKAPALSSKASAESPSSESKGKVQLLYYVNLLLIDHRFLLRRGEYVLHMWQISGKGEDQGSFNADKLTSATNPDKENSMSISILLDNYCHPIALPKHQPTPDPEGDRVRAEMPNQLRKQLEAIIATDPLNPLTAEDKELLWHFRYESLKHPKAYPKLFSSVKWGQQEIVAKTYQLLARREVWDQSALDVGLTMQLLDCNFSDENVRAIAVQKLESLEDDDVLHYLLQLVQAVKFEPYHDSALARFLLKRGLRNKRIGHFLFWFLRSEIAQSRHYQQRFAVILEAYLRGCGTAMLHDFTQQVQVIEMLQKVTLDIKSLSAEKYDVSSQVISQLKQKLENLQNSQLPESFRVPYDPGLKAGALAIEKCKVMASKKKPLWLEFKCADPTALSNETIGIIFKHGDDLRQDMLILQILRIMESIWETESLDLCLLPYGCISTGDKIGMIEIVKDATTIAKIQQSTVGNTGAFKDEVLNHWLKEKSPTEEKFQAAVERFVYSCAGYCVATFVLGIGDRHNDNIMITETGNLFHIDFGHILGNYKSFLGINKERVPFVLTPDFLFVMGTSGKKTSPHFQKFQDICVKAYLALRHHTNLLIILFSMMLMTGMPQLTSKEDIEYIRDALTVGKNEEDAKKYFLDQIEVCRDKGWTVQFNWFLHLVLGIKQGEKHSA
The assay is described as above. The following applies: PIK3Cγ_h. The gist of the method:
as §2

A further assay has as its target T5, PI3Kβ (Homo sapiens, UniProt P42338).
T5 construct: purchased DiscoveRx Corporation, San Diego (contract service, KINOMEscan)
The assay is described as follows: Enzyme binding assay (KINOMEscan, DiscoveRx). The conditions noted are these: PIK3Cβ_h, read-out: Kd PIK3Cβ_h. In outline:
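Compounds are profiled for binding to the kinase using KINOMEscan. The affinity is then reported as an inhibitor Kd in nanomolar units.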

T2 sequence (P42336 whole entry): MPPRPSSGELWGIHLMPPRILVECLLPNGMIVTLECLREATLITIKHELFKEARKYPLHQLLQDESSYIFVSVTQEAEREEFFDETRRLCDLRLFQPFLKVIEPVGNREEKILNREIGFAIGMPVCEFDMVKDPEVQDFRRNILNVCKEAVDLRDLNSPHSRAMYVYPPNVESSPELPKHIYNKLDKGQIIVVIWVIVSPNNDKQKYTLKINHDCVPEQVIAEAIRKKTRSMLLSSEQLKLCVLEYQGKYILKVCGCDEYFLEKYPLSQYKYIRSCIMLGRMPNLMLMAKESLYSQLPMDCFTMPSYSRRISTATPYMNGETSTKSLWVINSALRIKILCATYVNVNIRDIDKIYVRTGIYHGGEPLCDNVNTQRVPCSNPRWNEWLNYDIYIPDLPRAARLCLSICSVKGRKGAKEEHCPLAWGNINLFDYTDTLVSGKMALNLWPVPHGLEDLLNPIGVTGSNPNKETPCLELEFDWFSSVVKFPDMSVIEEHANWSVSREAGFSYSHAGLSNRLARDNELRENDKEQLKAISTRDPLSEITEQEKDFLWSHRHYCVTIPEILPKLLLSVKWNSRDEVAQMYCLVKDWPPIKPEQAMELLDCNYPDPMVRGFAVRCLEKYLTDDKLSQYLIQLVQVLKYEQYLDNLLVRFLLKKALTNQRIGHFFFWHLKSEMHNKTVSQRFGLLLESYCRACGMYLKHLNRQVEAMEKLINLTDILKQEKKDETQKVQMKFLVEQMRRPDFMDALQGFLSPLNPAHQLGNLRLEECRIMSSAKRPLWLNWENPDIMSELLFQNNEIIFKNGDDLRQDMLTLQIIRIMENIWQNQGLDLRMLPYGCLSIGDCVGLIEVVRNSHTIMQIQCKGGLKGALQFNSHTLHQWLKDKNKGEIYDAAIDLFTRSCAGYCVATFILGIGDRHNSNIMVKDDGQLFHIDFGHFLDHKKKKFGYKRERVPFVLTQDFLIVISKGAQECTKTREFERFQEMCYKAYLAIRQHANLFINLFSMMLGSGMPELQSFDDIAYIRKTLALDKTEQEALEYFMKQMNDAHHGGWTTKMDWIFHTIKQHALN
T5 sequence (P42338 whole entry): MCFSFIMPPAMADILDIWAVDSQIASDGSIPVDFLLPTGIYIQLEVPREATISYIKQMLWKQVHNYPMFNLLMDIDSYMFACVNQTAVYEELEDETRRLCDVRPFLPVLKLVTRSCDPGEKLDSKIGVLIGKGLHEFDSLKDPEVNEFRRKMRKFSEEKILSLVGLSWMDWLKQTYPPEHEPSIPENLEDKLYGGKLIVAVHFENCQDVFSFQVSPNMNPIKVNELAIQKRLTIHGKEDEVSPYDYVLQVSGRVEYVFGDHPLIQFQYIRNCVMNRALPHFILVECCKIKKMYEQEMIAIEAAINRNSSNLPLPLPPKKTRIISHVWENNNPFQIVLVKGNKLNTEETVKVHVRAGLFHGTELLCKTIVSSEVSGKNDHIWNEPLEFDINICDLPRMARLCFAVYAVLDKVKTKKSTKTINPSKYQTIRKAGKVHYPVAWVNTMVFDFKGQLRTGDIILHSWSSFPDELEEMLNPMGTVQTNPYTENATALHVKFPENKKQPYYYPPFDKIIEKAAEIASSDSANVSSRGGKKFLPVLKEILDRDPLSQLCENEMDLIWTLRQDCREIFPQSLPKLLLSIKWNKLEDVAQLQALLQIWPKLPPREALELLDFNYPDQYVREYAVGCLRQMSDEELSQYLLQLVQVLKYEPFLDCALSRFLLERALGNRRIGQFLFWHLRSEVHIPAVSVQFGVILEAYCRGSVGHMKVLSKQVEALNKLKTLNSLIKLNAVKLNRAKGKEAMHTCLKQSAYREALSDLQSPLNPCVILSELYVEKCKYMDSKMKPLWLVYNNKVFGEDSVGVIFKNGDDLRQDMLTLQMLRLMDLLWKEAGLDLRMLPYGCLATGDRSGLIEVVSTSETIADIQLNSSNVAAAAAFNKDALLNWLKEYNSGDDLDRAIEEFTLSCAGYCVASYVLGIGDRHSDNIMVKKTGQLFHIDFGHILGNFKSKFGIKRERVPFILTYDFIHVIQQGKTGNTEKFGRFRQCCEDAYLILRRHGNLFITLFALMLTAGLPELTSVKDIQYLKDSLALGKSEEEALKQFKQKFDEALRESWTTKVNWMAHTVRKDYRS

In general, IC50 refers to the concentration that gives 50% inhibition. A word on the Kd: it is the concentration at which binding is half-saturated. With `COC(=O)c1cc(C2CCCN2c2cc(F)cc(F)c2)c2nc(N3CCOCC3)cnc2c1` (single isomer, unassigned) [Compound 252], the IC50 in assay [1] and in assay [2] was more than 0.513 µM throughout. Moreover, the Kd at PI3Kδ, at kinase enzymes [3], at kinase enzymes [4], on kinase enzymes [5] and at PI3Kβ was more than 30.2 µM each time.
Regarding `CNCCOCCN(C)C(=O)c1cc(C(C)Nc2cc(F)cc(F)c2)c2nc(N3CCOCC3)cnc2c1` (single isomer, unassigned) [Compound 175], the values for the IC50 in assay [1] and in assay [2] were 0.009 µM and 0.011 µM, respectively. In addition, the Kd is 0.112 µM on PI3Kδ; 1.7 µM at kinase enzymes [3]; more than 30.2 µM on kinase enzymes [4]; 2.57 µM on kinase enzymes [5]; 0.0004 µM at PI3Kβ.
On to `CC(O)c1cc(C2CCCN2c2cc(F)cc(F)c2)c2nc(N3CCOCC3)cnc2c1` (single isomer, unassigned) [Compound 15], for which the IC50 in assay [1] is 0.004 µM; in assay [2] it was 0.002 µM. Further, the Kd at PI3Kδ was 0.043 µM; at kinase enzymes [3] it was 0.234 µM; on kinase enzymes [4], more than 30.2 µM; on kinase enzymes [5] it was 0.372 µM; at PI3Kβ, 0.001 µM.
Take `CC(Nc1cc(F)cc(F)c1)c1cc(CN2CCOCC23COC3)cc2ncc(N3CCOCC3)nc12` (single isomer, unassigned) [Compound 195]: the IC50 in assay [1] was approximately 0.102 µM; in assay [2], 0.047 µM. Also, the Kd is 0.479 µM on PI3Kδ; 1.95 µM at kinase enzymes [3]; more than 30.2 µM at kinase enzymes [4]; 12.9 µM at kinase enzymes [5]; 0.002 µM on PI3Kβ.
For the compound `CC(C)NCCNC(=O)c1cc(C(C)Oc2ccc(F)c(F)c2)c2nc(N3CCOCC3)cnc2c1` (racemic) [Compound 286], the IC50 in assay [1] worked out at 0.398 µM; in assay [2] it was 0.245 µM. Further, the Kd was 2.04 µM on PI3Kδ; 7.41 µM at kinase enzymes [3]; more than 30.2 µM at kinase enzymes [4]; 17 µM on kinase enzymes [5]; 0.018 µM on PI3Kβ.
Turning to `CC(Nc1ccc(F)c(F)c1)c1cc(C(=O)N2CCN3CCC[C@H]3C2)cc2ncc(N3CCOCC3)nc12` (single isomer, unassigned) [Compound 287a], the values for the IC50 in assay [1] and in assay [2] were 0.031 µM and 0.034 µM, respectively. In addition, the Kd on PI3Kδ was 0.234 µM; at kinase enzymes [3], 1.74 µM; at kinase enzymes [4], more than 30.2 µM; on kinase enzymes [5], 20.9 µM; at PI3Kβ it was 0.003 µM.
`COC1CN(Cc2cc(C(C)Nc3cc(F)cc(F)c3)c3nc(N4CCOCC4)cnc3c2)CC1OC` (single isomer, unassigned) [Compound 207]: the IC50 in assay [1] was 0.372 µM; in assay [2], 0.105 µM. The Kd on PI3Kδ worked out at 0.891 µM; on kinase enzymes [3] it was 5.25 µM; on kinase enzymes [4], 7.94 µM; at kinase enzymes [5], 16.2 µM; on PI3Kβ it was 0.006 µM.
`C[C@@H]1CN(c2cnc3cc(C(=O)N(C)C)cc(C4CCCN4c4cc(F)cc(F)c4)c3n2)CCO1` (stereo partly drawn) [Compound 4]: the IC50 in assay [1] (Homo sapiens, PC-3, 1 h) was more than 0.513 µM; in assay [2] (Homo sapiens, PC-3, 1 h) it was more than 0.513 µM. The Kd was 22.9 µM at PI3Kδ; 23.4 µM on kinase enzymes [3]; more than 30.2 µM at kinase enzymes [4]; more than 30.2 µM at kinase enzymes [5]; 1.7 µM on PI3Kβ.
Consider `CC(Nc1ccc(F)c(F)c1)c1cc(C(=O)NCC(C)(C)O)cc2ncc(N3CCOCC3)nc12` (single isomer, unassigned) [Compound 348b], for which the IC50 in assay [1] and in assay [2] was more than 0.513 µM in each case. For the same compound, the Kd is 25.7 µM on PI3Kδ; more than 30.2 µM at kinase enzymes [3]; more than 30.2 µM at kinase enzymes [4]; more than 30.2 µM on kinase enzymes [5]; 1.32 µM on PI3Kβ.
For the compound `CNCCN(C)C(=O)c1cc(C(C)Nc2cc(F)cc(F)c2)c2nc(N3CCOCC3)cnc2c1` (single isomer, unassigned) [Compound 152], the IC50 in assay [1] worked out at 0.062 µM; in assay [2] it was 0.087 µM. In addition, the dissociation constant Kd at PI3Kδ was 1.82 µM; on kinase enzymes [3], 3.98 µM; at kinase enzymes [4] it was more than 30.2 µM; at kinase enzymes [5], 8.71 µM; on PI3Kβ, 0.01 µM.
For the compound `C[C@@H]1CN(c2cnc3cc(C(=O)N(C)C)cc(C4CCCN4c4cccc(F)c4)c3n2)CCO1` (single isomer, unassigned) [Compound 29], the IC50 in assay [1] and in assay [2] was more than 0.513 µM each time. Also, the Kd at PI3Kδ is 21.9 µM; on kinase enzymes [3] it was 10.2 µM; on kinase enzymes [4] it was 23.4 µM; on kinase enzymes [5], more than 30.2 µM; on PI3Kβ, 1.66 µM.
Turning to `CC(Nc1cccc(F)c1)c1cc(C(=O)NC[C@@H](C)O)cc2ncc(N3CCOCC3)nc12` (stereo partly drawn) [Compound 338], the IC50 in assay [1] (Homo sapiens, PC-3, 1 h) worked out at 0.275 µM; in assay [2] (Homo sapiens, PC-3, 1 h) it was 0.098 µM. Moreover, the Kd on PI3Kδ is 2.95 µM; at kinase enzymes [3], 2.34 µM; on kinase enzymes [4], more than 30.2 µM; on kinase enzymes [5], 4.37 µM; on PI3Kβ, 0.012 µM.
Take `O=C(NCCO)c1cc(N2CCCC2c2cc(F)cc(F)c2)c2nc(N3CCOCC3)cnc2c1` (single isomer, unassigned) [Compound 245]: the IC50 in assay [1] and in assay [2] was more than 0.513 µM throughout. For the same compound, the Kd turned out to be 1.05 µM at PI3Kδ; 8.71 µM at kinase enzymes [3]; 21.9 µM on kinase enzymes [4]; 13.2 µM on kinase enzymes [5]; 0.072 µM on PI3Kβ.
Take `CC(Nc1cc(F)cc(F)c1)c1cc(C(=O)N2CCC(NCC(F)(F)F)C2)cc2ncc(N3CCOCC3)nc12` (stereo not drawn) [Compound 217]: the IC50 in assay [1] (Homo sapiens, PC-3, 1 h) worked out at 0.079 µM; in assay [2] (Homo sapiens, PC-3, 1 h) it was 0.049 µM. For the same compound, the Kd on PI3Kδ was 1.29 µM; at kinase enzymes [3], 2.14 µM; at kinase enzymes [4], more than 30.2 µM; at kinase enzymes [5], 24 µM; at PI3Kβ, 0.004 µM.
For the compound `CNCCN(C)C(=O)c1cc(C(C)Oc2cc(F)c(F)c(F)c2)c2nc(N3CCOCC3)cnc2c1` (stereo not drawn) [Compound 379a], the IC50 in assay [1] (Homo sapiens, PC-3, 1 h) is approximately 0.029 µM; in assay [2] (Homo sapiens, PC-3, 1 h), 0.022 µM. Besides, the Kd is 0.813 µM at PI3Kδ; 9.77 µM on kinase enzymes [3]; more than 30.2 µM at kinase enzymes [4]; more than 30.2 µM at kinase enzymes [5]; 0.002 µM on PI3Kβ.
On to `CNCCNC(=O)c1cc(C(C)Nc2cc(F)cc(F)c2)c2nc(N3CCOCC3)cnc2c1` (single isomer, unassigned) [Compound 406b], for which the IC50 in assay [1] and in assay [2] was more than 0.513 µM each time. The Kd is 3.47 µM on PI3Kδ; 7.41 µM on kinase enzymes [3]; more than 30.2 µM at kinase enzymes [4]; 3.8 µM at kinase enzymes [5]; 0.141 µM on PI3Kβ.
As to `CCN1CCN(C(=O)c2cc(C(C)Oc3cccc(F)c3)c3nc(N4CCOCC4)cnc3c2)CC1` (stereo not drawn) [Compound 90], the half-maximal inhibitory concentration (IC50) is more than 0.513 µM in assay [1] (Homo sapiens, PC-3, 1 h) and more than 0.513 µM in assay [2] (Homo sapiens, PC-3, 1 h). The Kd is 0.741 µM at PI3Kδ; 9.12 µM at kinase enzymes [3]; more than 30.2 µM on kinase enzymes [4]; 22.9 µM on kinase enzymes [5]; 0.017 µM at PI3Kβ.
Regarding `CC(Oc1ccc(Cl)c(F)c1)c1cc(C(=O)N(C)CCN(C)C)cc2ncc(N3CCOCC3)nc12` (single isomer, unassigned) [Compound 313a], the IC50 in assay [1] (Homo sapiens, PC-3, 1 h) was found to be 0.257 µM; in assay [2], 0.166 µM. Further, the Kd at PI3Kδ is 0.851 µM; at kinase enzymes [3], 5.01 µM; on kinase enzymes [4], more than 30.2 µM; at kinase enzymes [5], 26.3 µM; at PI3Kβ it was 0.003 µM.
